Assay results: CN116462616A, “炔酰胺类化合物及其应用” (Jinan University, priority 2022, dated 2023)

Legend:
[1] = biological target: T1, bovine serum albumin [牛血清蛋白] (Bos taurus, UniProt P02769); assay: Selective modification of acidic amino acid residues of a pure protein (biological mass spectrometry); type: binding; details: 100 μM, 37 °C, 0.5 h
[2] = system: proteins of HepG2 cells [人源肝癌细胞HepG2]; assay: Covalent modification of protein amino acid residues in tumour cells (live-cell labelling, gel fluorescence); type: cell-based, human; details: HepG2, 50 μM probe, 37 °C, 3 h
GAPDH = biological target: T2, GAPDH (Homo sapiens, UniProt P04406); assay: Pull-down and western blot, GAPDH; type: binding; details: 50 μM, HepG2/H3255 cells, 37 °C, 5 h
T2 construct: 50μM分子探针YN-1和YN-4与HepG2/H3255细胞于37℃孵育5h; endogenous in cells; host or cells: HepG2/H3255

ALDH1 = biological target: T3, ALDH1 (Homo sapiens, UniProt P00352); assay: Pull-down and western blot, ALDH1; type: binding; details: 50 μM, HepG2/H3255 cells, 37 °C, 5 h
T3 construct: 50μM分子探针YN-1和YN-4与HepG2/H3255细胞于37℃孵育5h; endogenous in cells; host or cells: HepG2/H3255
T3 sequence (P00352 1-501): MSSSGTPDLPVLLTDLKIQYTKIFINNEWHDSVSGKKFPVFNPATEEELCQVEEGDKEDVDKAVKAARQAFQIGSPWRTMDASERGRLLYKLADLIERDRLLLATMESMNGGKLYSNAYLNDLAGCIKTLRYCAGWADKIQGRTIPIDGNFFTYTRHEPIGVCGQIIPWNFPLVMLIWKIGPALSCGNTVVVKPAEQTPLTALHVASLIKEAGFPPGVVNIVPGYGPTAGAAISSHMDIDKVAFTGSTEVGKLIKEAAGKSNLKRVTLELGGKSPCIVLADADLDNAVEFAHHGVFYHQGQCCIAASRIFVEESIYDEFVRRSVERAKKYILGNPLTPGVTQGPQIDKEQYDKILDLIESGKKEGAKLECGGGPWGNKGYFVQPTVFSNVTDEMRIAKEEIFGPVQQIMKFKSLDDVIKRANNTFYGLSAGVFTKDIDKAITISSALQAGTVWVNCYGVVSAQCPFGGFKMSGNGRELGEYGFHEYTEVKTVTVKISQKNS

MEK2 = biological target: T4, MEK2 (Homo sapiens, UniProt P36507); assay: Pull-down and western blot, MEK2; type: binding; details: 50 μM, HepG2/H3255 cells, 37 °C, 5 h
T4 construct: 50μM分子探针YN-1和YN-4与HepG2/H3255细胞于37℃孵育5h; endogenous in cells; host or cells: HepG2/H3255

HepG2 cells [HepG2细胞] = assay: Selective modification of acidic amino acid residues in cells (biological mass spectrometry); type: cell-based, human; details: 100 μM, 37 °C, 8 h
ECH1 = biological target: T5, ECH1 (Homo sapiens, UniProt Q13011); assay: Pull-down and western blot, ECH1; type: binding; details: 50 μM, HepG2/H3255 cells, 37 °C, 5 h
T5 construct: 50μM分子探针YN-1和YN-4与HepG2/H3255细胞于37℃孵育5h; endogenous in cells; host or cells: HepG2/H3255
T5 sequence (Q13011 34-328): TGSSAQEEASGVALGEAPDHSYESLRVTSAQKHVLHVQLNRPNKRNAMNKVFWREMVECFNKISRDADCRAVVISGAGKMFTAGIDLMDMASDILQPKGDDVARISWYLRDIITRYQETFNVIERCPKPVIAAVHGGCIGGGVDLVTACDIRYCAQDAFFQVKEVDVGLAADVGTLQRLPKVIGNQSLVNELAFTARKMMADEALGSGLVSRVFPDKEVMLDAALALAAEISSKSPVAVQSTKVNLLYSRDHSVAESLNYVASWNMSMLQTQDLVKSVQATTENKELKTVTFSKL

[3] = biological target: T1, bovine serum albumin [牛血清蛋白]; assay: Covalent modification of amino acid residues of a pure protein (gel fluorescence after click chemistry); type: binding; details: 10.0 μM probe, 1 mg/mL protein, 37 °C, 3 h

T1 sequence (P02769 25-607): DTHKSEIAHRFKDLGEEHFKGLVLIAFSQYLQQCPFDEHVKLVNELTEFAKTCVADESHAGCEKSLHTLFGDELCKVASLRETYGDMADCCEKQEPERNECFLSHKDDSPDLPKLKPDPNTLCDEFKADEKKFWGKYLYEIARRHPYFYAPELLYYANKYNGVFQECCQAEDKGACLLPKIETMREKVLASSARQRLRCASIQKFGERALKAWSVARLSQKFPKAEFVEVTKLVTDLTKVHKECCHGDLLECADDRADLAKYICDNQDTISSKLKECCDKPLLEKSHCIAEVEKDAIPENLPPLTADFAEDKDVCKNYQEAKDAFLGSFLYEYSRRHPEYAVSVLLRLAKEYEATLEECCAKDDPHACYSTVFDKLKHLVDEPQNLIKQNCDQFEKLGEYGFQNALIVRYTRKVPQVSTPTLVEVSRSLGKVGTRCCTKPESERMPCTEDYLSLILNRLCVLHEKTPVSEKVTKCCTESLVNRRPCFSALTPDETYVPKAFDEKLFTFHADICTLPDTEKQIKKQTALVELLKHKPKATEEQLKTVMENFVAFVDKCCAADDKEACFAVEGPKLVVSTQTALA
T2 sequence (P04406 whole entry): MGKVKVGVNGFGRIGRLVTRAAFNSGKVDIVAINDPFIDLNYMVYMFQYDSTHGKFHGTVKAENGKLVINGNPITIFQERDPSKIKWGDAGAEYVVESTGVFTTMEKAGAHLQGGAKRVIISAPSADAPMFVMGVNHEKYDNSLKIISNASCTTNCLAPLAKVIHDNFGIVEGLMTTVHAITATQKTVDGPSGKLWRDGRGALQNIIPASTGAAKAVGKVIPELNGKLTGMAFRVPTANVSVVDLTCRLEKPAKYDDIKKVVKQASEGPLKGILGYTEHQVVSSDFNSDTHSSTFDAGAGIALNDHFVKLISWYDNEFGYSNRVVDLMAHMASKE
T4 sequence (P36507 whole entry): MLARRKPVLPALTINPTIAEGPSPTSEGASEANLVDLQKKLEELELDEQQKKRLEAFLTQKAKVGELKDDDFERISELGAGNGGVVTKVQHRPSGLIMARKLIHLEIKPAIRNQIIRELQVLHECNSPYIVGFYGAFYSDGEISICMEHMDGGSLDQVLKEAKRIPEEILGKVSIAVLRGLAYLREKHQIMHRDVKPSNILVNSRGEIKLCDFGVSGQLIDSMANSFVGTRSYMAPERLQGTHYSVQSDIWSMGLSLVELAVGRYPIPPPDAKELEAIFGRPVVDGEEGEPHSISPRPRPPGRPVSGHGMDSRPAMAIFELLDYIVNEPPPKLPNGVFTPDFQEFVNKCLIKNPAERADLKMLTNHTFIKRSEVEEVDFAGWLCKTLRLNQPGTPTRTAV

| selective modification of acidic amino acid residues (aspartic acid and glutamic acid) [1] | targeted binding to GAPDH (GAPDH) | targeted binding to ALDH1 (ALDH1) | targeted binding to MEK2 (MEK2) | targeted binding to ECH1 (ECH1) | covalent labelling of bovine serum albumin [3] | SMILES | covalent labelling of proteins at live-cell level [2] | selective modification of acidic amino acid residues (aspartic acid and glutamic acid) (HepG2 cells [HepG2细胞]) |
| --- | --- | --- | --- | --- | --- | --- | --- | --- |
| 可选择性修饰酸性氨基酸残基天冬氨酸残基及谷氨酸残基 | 能靶向结合 | 能靶向结合 | 能靶向结合 | 能靶向结合 | 能够共价标记牛血清蛋白 | C#Cc1ccc(S(=O)(=O)N(C)C#C)cc1 [YN-1] | 能够在活细胞水平共价标记蛋白 | 可选择性修饰酸性氨基酸残基天冬氨酸残基及谷氨酸残基 |
|  |  |  |  |  | 能够共价标记牛血清蛋白 | C#Cc1ccc(C#CN(C)S(=O)(=O)c2ccc(C)cc2)cc1 [YN-2] | 能够在活细胞水平共价标记蛋白 |  |
|  |  |  |  |  | 能够共价标记牛血清蛋白 | C#Cc1ccc(OCc2ccc(S(=O)(=O)N(C)C#C)cc2)cc1 [YN-3] | 能够在活细胞水平共价标记蛋白 |  |
